Assay results: the supplement of paper PMC5908809

What was measured:
[1] = tested on: normal NK cells expanded with K562-aAPC; experiment: percent inhibition of viability; higher = more inhibition; conditions: 72 h, IL-2 2.5 ng/mL
Protocol: (§1)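 Drug sensitivity and resistance testing on K562-aAPC-expanded normal NK cells: 5 concentrations (10-fold steps over a 10,000-fold range), 72 h at 37 °C, viability by CellTiter-Glo normalised to DMSO and benzethonium chloride controls; DSS from the fitted curve.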

DERL-7 (IL-2 2.5 ng/mL) [2] = experiment: as above; conditions: 72 h
IMC-1 (IL-2 20 ng/mL) [3] = experiment: as above; conditions: 72 h
KAI3 (IL-2 2.5 ng/mL) [4] = experiment: as above; conditions: 72 h
KHYG-1 (IL-2 2.5 ng/mL) [5] = experiment: as above; conditions: 72 h
NK-92 (IL-2 2.5 ng/mL) [6] = experiment: as above; conditions: 72 h
NK-YS (IL-2 2.5 ng/mL) [7] = experiment: as above; conditions: 72 h
NKL (IL-2 2.5 ng/mL) [8] = experiment: as above; conditions: 72 h
SNK-6 (IL-2 2.5 ng/mL) [9] = experiment: as above; conditions: 72 h
YT (IL-2 2.5 ng/mL) [10] = experiment: as above; conditions: 72 h
[11] = tested on: normal primary NK cells, pool 1 (3 donors) (IL-2 2.5 ng/mL); experiment: as above; conditions: 72 h
[12] = tested on: normal primary NK cells, pool 1 (3 donors), resting (IL-2 0 ng/mL); experiment: as above; conditions: 72 h
[13] = tested on: normal primary NK cells, pool 2 (3 donors) (IL-2 2.5 ng/mL); experiment: as above; conditions: 72 h
[14] = tested on: normal primary NK cells, pool 3 (3 donors) (IL-2 2.5 ng/mL); experiment: as above; conditions: 72 h
[15] = tested on: normal NK cells expanded with K562-aAPC; experiment: drug sensitivity score (DSS) (DSS units); higher = more sensitive; extreme values may be limits of the assay; conditions: 72 h; IL-2 2.5 ng/mL
Protocol: as §1

DERL-7 (IL-2 2.5 ng/mL) [16] = experiment: as above; conditions: 72 h
IMC-1 (IL-2 20 ng/mL) [17] = experiment: as above; conditions: 72 h
KAI3 (IL-2 2.5 ng/mL) [18] = experiment: as above; conditions: 72 h
KHYG-1 (IL-2 2.5 ng/mL) [19] = experiment: as above; conditions: 72 h
NK-92 (IL-2 2.5 ng/mL) [20] = experiment: as above; conditions: 72 h
NK-YS (IL-2 2.5 ng/mL) [21] = experiment: as above; conditions: 72 h
NKL (IL-2 2.5 ng/mL) [22] = experiment: as above; conditions: 72 h
SNK-6 (IL-2 2.5 ng/mL) [23] = experiment: as above; conditions: 72 h
YT (IL-2 2.5 ng/mL) [24] = experiment: as above; conditions: 72 h
[25] = tested on: normal primary NK cells, pool 1 (3 donors) (IL-2 2.5 ng/mL); experiment: as above; conditions: 72 h
[26] = tested on: normal primary NK cells, pool 1 (3 donors), resting (IL-2 0 ng/mL); experiment: as above; conditions: 72 h
[27] = tested on: normal primary NK cells, pool 2 (3 donors) (IL-2 2.5 ng/mL); experiment: as above; conditions: 72 h
[28] = tested on: normal primary NK cells, pool 3 (3 donors) (IL-2 2.5 ng/mL); experiment: as above; conditions: 72 h

Cc1cc2c(F)c(Oc3ncnn4cc(OC[C@@H](C)O)c(C)c34)ccc2[nH]1 [Brivanib] (max concentration tested 1000 nM)
percent inhibition of viability [%]
Conditions | 0.1 nM | 1 nM | 10 nM | 100 nM | 1000 nM
DERL-7 (IL-2 2.5 ng/mL) [2] | 0.94 | 7.48 | -2.36 | 3.07 | -1.62
IMC-1 (IL-2 20 ng/mL) [3] | -8.23 | -2.37 | -10.1 | -3.91 | -8.67
KAI3 (IL-2 2.5 ng/mL) [4] | -2.86 | 1.99 | -5.53 | -0.99 | -2.38
KHYG-1 (IL-2 2.5 ng/mL) [5] | -4.66 | -2.28 | -3.77 | -3.68 | -5.25
NK-92 (IL-2 2.5 ng/mL) [6] | -10.1 | -9.6 | -3.98 | -10.2 | -5.2
NK-YS (IL-2 2.5 ng/mL) [7] | -2 | -5.08 | -6.17 | 0.88 | 13.4
NKL (IL-2 2.5 ng/mL) [8] | -11.2 | -9.83 | -21.6 | -12.1 | -10.2
SNK-6 (IL-2 2.5 ng/mL) [9] | 5.84 | -0.07 | 3.56 | 8.94 | 4.87
YT (IL-2 2.5 ng/mL) [10] | -2.1 | -2.63 | -1.47 | -0.95 | -3.56
[1] | 0.76 | -1.44 | 1.84 | -3.64 | -2.22
[11] | -8.41 | -6.09 | 4.52 | -3.63 | -4.56
[12] | -11.7 | -6.81 | 7.63 | -9.3 | -5.72
[13] | -6.73 | -10 | -9.37 | -10.3 | -8.25
[14] | -9.42 | -10.1 | -12.4 | -11 | -7.07

Conditions | drug sensitivity score
DERL-7 (IL-2 2.5 ng/mL) [16] | 0
IMC-1 (IL-2 20 ng/mL) [17] | 0
KAI3 (IL-2 2.5 ng/mL) [18] | 0
KHYG-1 (IL-2 2.5 ng/mL) [19] | 0
NK-92 (IL-2 2.5 ng/mL) [20] | 0
NK-YS (IL-2 2.5 ng/mL) [21] | 0.18
NKL (IL-2 2.5 ng/mL) [22] | 0
SNK-6 (IL-2 2.5 ng/mL) [23] | 0
YT (IL-2 2.5 ng/mL) [24] | 0
[15] | 0
[25] | 0
[26] | 0
[27] | 0
[28] | 0

O=C(O)CCCc1ccc(N(CCCl)CCCl)cc1 [Chlorambucil] (max concentration tested 10000 nM)
percent inhibition of viability [%]
Conditions | 1 nM | 10 nM | 100 nM | 1000 nM | 10000 nM
DERL-7 (IL-2 2.5 ng/mL) [2] | -3.58 | -2.26 | -1.57 | 2.26 | 35.3
IMC-1 (IL-2 20 ng/mL) [3] | -7.26 | -1.26 | -5.09 | -7.21 | 20.6
KAI3 (IL-2 2.5 ng/mL) [4] | -12.3 | 0 | 13 | 21.6 | 84.8
KHYG-1 (IL-2 2.5 ng/mL) [5] | -4.53 | -1.14 | -2.99 | -0.01 | 59
NK-92 (IL-2 2.5 ng/mL) [6] | -16.2 | -10.6 | -3.93 | -0.43 | 69.5
NK-YS (IL-2 2.5 ng/mL) [7] | -6.87 | -0.61 | 3.17 | 13.6 | 84.7
NKL (IL-2 2.5 ng/mL) [8] | -13 | -7.71 | -6.04 | 27.6 | 92.1
SNK-6 (IL-2 2.5 ng/mL) [9] | 9.02 | 25.1 | -1.14 | 10.8 | 92.4
YT (IL-2 2.5 ng/mL) [10] | -0.58 | -2.33 | -2.72 | -5.92 | 9.19
[1] | -0.47 | -10 | -5.18 | -1.85 | 46.2
[11] | -5.48 | -9.5 | 0.36 | 3.15 | 70.4
[12] | -14.6 | -7.61 | 2.57 | 19.2 | 88.2
[13] | -11.7 | -6.52 | -4.85 | 1.94 | 69.2
[14] | -13.1 | -5.69 | -6.16 | -0.15 | 53

Conditions | drug sensitivity score
DERL-7 (IL-2 2.5 ng/mL) [16] | 2
IMC-1 (IL-2 20 ng/mL) [17] | 0.4
KAI3 (IL-2 2.5 ng/mL) [18] | 7.66
KHYG-1 (IL-2 2.5 ng/mL) [19] | 3.19
NK-92 (IL-2 2.5 ng/mL) [20] | 3.79
NK-YS (IL-2 2.5 ng/mL) [21] | 6.96
NKL (IL-2 2.5 ng/mL) [22] | 9.13
SNK-6 (IL-2 2.5 ng/mL) [23] | 6.91
YT (IL-2 2.5 ng/mL) [24] | 0
[15] | 2.23
[25] | 4.31
[26] | 7.95
[27] | 4.06
[28] | 2.81
